Laboratory results published in patent publication US11334695B2, “Antiperspirant and deodorant compositions comprising malodor reduction compositions” (The Procter & Gamble Company, priority 2014, dated 2022).

Assay: Blocker Index (BI), expert grader ranking of malodor strength of isovaleric acid swatch treated with test material
Method: Making Swatches Treated with the Test Material A clean swatch is treated with 13 μL of a known concentration of a test sample material resulting in an about 1 cm of the solution on the clean swatch. Just like the reference swatches, the test sample material swatch is dried in a vented hood for 30 minutes and then wrapped in aluminum foil to prevent contamination. The test material swatches and the FFI reference swatches should be made within 2 hrs of each other. The test material swatch must be used within 0.5 to 12 hours and discarded after 12 hours. Assigning the FFI to the Test Material At least two perfumers/expert graders are used to assign an FFI grade to a test sample. The perfumer/expert grader smells the test sample swatch by holding that swatch 1 inch from their nose with their nose centered over the area where the test sample was pipetted on to the fabric and then assigns the test sample an FFI grade using the FFI reference scale anchor swatches as references. In cases where the test sample material is graded greater than 3, the test material is not a blocker material or the concentration of the material needs to be lowered and reevaluated to determine if a lower level has a malodor blocker functionality. Method for Assigning the BI to Test Sample The first step in the method for assigning a BI to a test sample material on the BI reference scale is to create the BI reference swatches. […] Fabric swatches for this test are white knit polycotton (4 inch×4 inch) swatches from EMC ordered as PC 50/50. The supplier is instructed to strip the swatches first, stripping involves washing twice with a fragrance-free detergent and rinsing three times. […] The BI scale contains one clean swatch with no malodor applied. […] These solutions are pipetted to the middle of the swatches. […] After drying for 30 minutes in a vented hood, the swatches are wrapped in aluminum foil to prevent odor contamination to the treated swatch. A clean untreated swatch is also included as the lowest anchor point of reference for malodor strength on the BI scale. The BI reference scale swatches should be used within 0.5 to 12 hours and discarded after 12 hours. The swatches are used as scale anchor points when graders evaluate a test sample(s) and are assigned a Blocker Index (BI) as show in Table 12. […] The perfumer/expert grader is asked to rank order swatches according to a scale between 0 and 3.
The reference swatches represent the 0, 1, 2, and 3 BIs on the BI reference scale, Table 12. The expert grader should familiarizes him/herself with the strength of the odor on the BI reference swatches by sniffing each one starting at 0 (the lowest odor strength) and ending at 3 (the highest odor strength). This should be done prior to evaluating the swatch treated with the test material.
Making the Malodorous Swatch and Treating it with a Test Material To evaluate the BI, the test material is applied to a malodorous swatch to determine how well the test material blocks the malodor. […] After drying the malodorous swatch a known concentration of test material solution, between 1 ppm and 100 ppm is pipetted onto the malodorous swatch. […] It is sometimes necessary to evaluate several levels of the test material between about 1 and about 100 ppm to determine the BI. Assigning the BI to the Test Material At least two perfumers/expert graders are used to assign the BI to the test sample. […] The test sample swatch is assigned a BI at or between numbers on the BI in table.

[1] = test material Conc 50 ppm on swatch with 20 μL 0.08% isovaleric acid, scale 0 to 3
[2] = test material Conc 10 ppm on swatch with 20 μL 0.08% isovaleric acid, scale 0 to 3
[3] = test material at 10 ppm on isovaleric acid swatch
[4] = test material at 50 ppm on isovaleric acid swatch

Structure (SMILES) | BI [1] | BI [2] | BI [3] | BI [4]
C=CC(C)=CCC=C(C)C [Material 524] | 2.8 |  |  | 
O=C1CCC2CCCCC2O1 (stereo not shown) [3,4,4a,5,6,7,8,8a-octahydrochromen-2-one] | 2.0 | 2.0 |  | 
CC(=O)OC1CC2CC1C1CC=CC21 (stereo not shown) [Material 281] | 2.0 | 2.0 |  | 
CC(C)(C)C1CCCCC1 [4-tert-butyl cyclohexane] | 2.0 | 2.0 |  | 
CC1(C)C2CCC3(C2)C1C(=O)CCC3(C)C (stereo not shown) [Material 1149] | 2.3 | 1.5 |  | 
CCCCCCCCCCCCO [Material 174] | 2.3 |  |  | 
C=C1CCC2OC2(C)CCC2C1CC2(C)C (stereo not shown) [Material 1148] | 2.3 |  |  | 
COC(=O)OC1CC/C=C\CCC1 (stereo not shown) [Material 1139] | 2.7 | 2.0 |  | 
CC1(C)CCc2ccc(CCC=O)cc21 |  |  | 1.5 | 2.7
CCCCCCCCCCCCCCCC(=O)OC [Material 109] |  | 2.0 |  | 
CC1CCC2(C(C)C)CC(C)OC2C1 (stereo not shown) |  |  | 2.0 | 2.2
CCC(=O)OC1CC2C3C=CCC3C1C2(C)C (stereo not shown) |  |  | 1.5 | 2.2
CCCCCCCCCCCC(=O)OCC [Material 391] | 2.2 |  |  | 
CC(CCO)CCc1ccccc1 (stereo not shown) [Material 962] | 1.7 | 2.3 |  | 
CCOC(=O)OC1C(C)CCC(C)C1C (stereo not shown) [Material 1005] | 2.6 |  |  | 
CCCCCCCCCCCO [Undecanol] | 2.3 |  |  | 
CC(=O)OCCCCCCC(C)C [Material 204] | 2.7 | 2.0 |  | 
CC1(C)CCc2ccc(CCC=O)cc21 [Material 261] | 1.3 | 1.8 |  | 
CCC(O)COC1CCCCC1C(C)(C)C (stereo not shown) [Material 677] | 2.0 | 2.3 |  | 
